Reference: paper PMC12846378 (Viruses, 2026)
Values joined by “and” are separate entries in the source; they are usually repeats but may differ in a detail not shown here. Identical values can stand only once. Like-named read-outs stand apart in the source and are kept apart here.

Tests used:
LCMV vRNP = LCMV vRNP (Mammarenavirus choriomeningitidis (LCMV), UniProt P14240); type: cell-based
rJUNV/GFP-P2A-NP [1] = assay: organism not typed; type: cell-based
rJUNV/GFP-P2A-NP [2] = assay: organism not typed; type: cell-based; remark: listed apart in the source
rLCMV/GFP-P2A-NP [3] = type: cell-based
A549 cells [4] = tested on: A549 cells
LCMV Z = type: cell-based
HEK293T cells [5] = tested on: HEK293T cells
rLCMV/GFP-P2A-NP [6] = type: cell-based; remark: listed apart in the source
rLCMV/GFP-P2A-NP [7] = type: cell-based; remark: listed apart in the source
HEK293T cells [8] = tested on: HEK293T cells; remark: listed apart in the source
A549 cells [9] = tested on: A549 cells; remark: listed apart in the source
A549 cells [10] = tested on: A549 cells; remark: listed apart in the source
LCMV NP RNA = type: cell-based
LASV vRNP = type: cell-based
ISG15 = type: cell-based
rLCMV/GFP-P2A-NP [11] = assay: organism not typed; type: cell-based
in vitro = settings: African green monkey
MX1 = type: cell-based
rLCMV/GFP-P2A-NP [12] = type: cell-based; remark: listed apart in the source

## CNC1=Nc2ccc(Cl)cc2C(c2ccc[nH]2)=NC1 [RO, Ro-24-7429]
LCMV vRNP
  inhibition of LCMV MG activity: significantly less efficient
rJUNV/GFP-P2A-NP [1]
  antiviral activity against JUNV: less efficient
rJUNV/GFP-P2A-NP [1]; read-out: EC50
  EC50: 15300 nM
rJUNV/GFP-P2A-NP [2]
  antiviral activity against JUNV: less efficient
rLCMV/GFP-P2A-NP [3]
  reduction in infectivity (GFP signal): ≥ 80%
A549 cells [4]
  reduction in cell viability / cytotoxicity: ≤ 20%
LCMV Z
  effect on Z budding activity: did not affect
HEK293T cells [5]
  CC50: > 1000 nM
rLCMV/GFP-P2A-NP [6]; read-out: EC50
  EC50: 889 nM and 890 nM
rLCMV/GFP-P2A-NP [7]
  production of infectious virus (titers in CCS): reduced efficacy at 1 µM compared to 5 µM
HEK293T cells [8]
  CC50: > 20000 nM
A549 cells [9]
  CC50: > 20000 nM
A549 cells [10]
  CC50: > 30000 nM
LCMV NP RNA
  effect on virus RNA replication and transcription: inhibited to a similar degree both virus replication and transcription
Vero E6 cells
  CC50: > 30000 nM
LASV vRNP
  inhibition of LASV MG activity: significantly less efficient

## O=C(/C=C\n1cnc(-c2cc(C(F)(F)F)cc(C(F)(F)F)c2)n1)NNc1cnccn1 [SE, Selinexor]
rLCMV/GFP-P2A-NP [7]
  production of infectious virus (titers in CCS): potent inhibitory effect on LCMV multiplication

## O=C(/C=C\n1cnc(-c2cc(C(F)(F)F)cc(C(F)(F)F)c2)n1)NNc1ccccn1 [VE, verdinexor]
LCMV vRNP
  inhibition of LCMV MG activity: potently inhibited
rJUNV/GFP-P2A-NP [1]
  EC50: 240 nM
  antiviral activity against JUNV: potent antiviral activity
rJUNV/GFP-P2A-NP [1]; Vero C1008
  EC50: 239 nM
rJUNV/GFP-P2A-NP [2]
  antiviral activity against JUNV: potent antiviral activity
rJUNV/GFP-P2A-NP [2]; A549
  EC50: 36 nM
rLCMV/GFP-P2A-NP [3]
  reduction in infectivity (GFP signal): ≥ 80%
A549 cells [4]; human
  reduction in cell viability / cytotoxicity: ≤ 20%
LCMV Z
  effect on Z budding activity: significant inhibitory effect
ISG15
  expression level of ISG15: reduced expression levels
rLCMV/GFP-P2A-NP [11]
  inhibition at 0.3334 µM: 77.6%
  inhibition at 1 µM: 97.05 ± 0.41%
In vitro
  CC50: > 30000 nM
rLCMV/GFP-P2A-NP [6]
  EC50: 70 nM
rLCMV/GFP-P2A-NP [7]
  reduction in virus peak titers: ~2 log
LCMV NP RNA
  effect on virus RNA replication and transcription: inhibited to a similar degree both virus replication and transcription
MX1
  expression level of MX1: reduced expression levels
rLCMV/GFP-P2A-NP [12]
  effect on LCMV multiplication in MAVS-KO A549 cells: strong dose-dependent inhibitory effect
LASV vRNP
  inhibition of LASV MG activity: potently inhibited
